Experimental findings from PubChem BioAssay AID206 (DTP/NCI, 2004) are described below.

“And” between values parts separate entries of the source, which are not always exact repeats. Identical values can stand only once. Results filed as inconclusive are left out.

The experiment has as its system nude mice, HT29 intrarenal xenograft, tumor weight T/C. Description: NCI In Vivo Anticancer Drug Screen. Data for tumor model HT29;CX-1 Human Adenocarcinoma (MER+) (intrarenal inoculation) in NU/NU Swiss (nude) mice. To be noted: endpoint: mean tumor weight change, higher = larger tumour. The gist of the method:
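T/C = treated-group value ÷ vehicle-group value, using tumor size or survival.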

The mark [1] stands for this setting: dose: 400.0 mg/kg/injection, schedule: Q01DX010 (sc), vehicle: saline.
[2] abbreviates: dose: 4.0 mg/kg/injection, schedule: Q04DX004 (sc), vehicle: saline.
[3] abbreviates: dose: 8.0 mg/kg/injection, schedule: Q04DX004 (sc), vehicle: saline.
[4] abbreviates: dose: 150.0 mg/kg/injection, schedule: Q04DX004 (sc), vehicle: saline with Tween-80.
Where [5] appears, read: dose: 300.0 mg/kg/injection, schedule: Q04DX004 (sc), vehicle: saline with Tween-80.

Regarding `Oc1ccccc1C=NCCC[N-]CCCN=Cc1ccccc1O.[Co]`, the T/C (dose: 25.0 mg/kg/injection, schedule: Q01DX010 (sc), vehicle: suspension in saline) is 109 % of control; the T/C (dose: 100.0 mg/kg/injection, schedule: Q01DX010 (sc), vehicle: suspension in saline) was 73 % of control and 76 % of control.
On to `COc1cccc2c1C(=O)c1c(O)c3c(c(O)c1C2=O)C[C@@](O)(/C(C)=N/NC(=O)c1ccc(Cl)cc1)C[C@@H]3OC1CC(N)C(O)C(C)O1` (stereo partly specified), for which the T/C (dose: 10.0 mg/kg/injection, schedule: Q04DX004 (sc), vehicle: water) was 88 % of control; the T/C (dose: 20.0 mg/kg/injection, schedule: Q04DX004 (sc), vehicle: water) is 39 % of control; the T/C (dose: 80.0 mg/kg/injection, schedule: Q04DX004 (sc), vehicle: water) was 25 % of control.
`O=c1nc(-c2ccco2)sc(=O)[nH]1`: the T/C is, setting by setting: (dose: 300.0 mg/kg/injection, schedule: Q04DX004 (sc), vehicle: Klucel (hydroxypropylcellulose) (HPC)) 235 % of control; (dose: 600.0 mg/kg/injection, schedule: Q04DX004 (sc), vehicle: Klucel (hydroxypropylcellulose) (HPC)) 98 % of control.
`N/C=N/O`: under setting [1], the T/C was 111 % of control.
For the compound `O=Cc1ccccc1`, the T/C is 119 % of control (dose: 200.0 mg/kg/injection, schedule: Q04DX004 (sc), vehicle: Klucel (hydroxypropylcellulose) (HPC)) and 107 % of control (dose: 400.0 mg/kg/injection, schedule: Q04DX004 (sc), vehicle: Klucel (hydroxypropylcellulose) (HPC)).
As for `C=C(C)[C@H]1Cc2c(ccc3c2O[C@@H]2COc4cc(OC)c(OC)cc4[C@@H]2C3=O)O1`, the T/C is, setting by setting: (dose: 2.0 mg/kg/injection, schedule: Q01DX010 (sc), vehicle: saline with Tween-80) 161 % of control; (dose: 4.0 mg/kg/injection, schedule: Q01DX010 (sc), vehicle: saline with Tween-80) 29 % of control; (dose: 8.0 mg/kg/injection, schedule: Q01DX010 (sc), vehicle: saline with Tween-80) 57 % of control.
On to `C/C=C/c1cc2n(c1)C(=O)c1cc(OC3OC(C)C(NC)C(C)(O)C3O)c(C)c(O)c1NC2O` (stereo unspecified), for which the T/C runs as follows: (dose: 12.5 micrograms/kg/injection, schedule: Q04DX004 (sc), vehicle: saline) 69 % of control; (dose: 25.0 micrograms/kg/injection, schedule: Q04DX004 (sc), vehicle: saline) 101 % of control; (dose: 50.0 micrograms/kg/injection, schedule: Q04DX004 (sc), vehicle: saline) 83 % of control; (dose: 100.0 micrograms/kg/injection, schedule: Q04DX004 (sc), vehicle: saline) 94 % of control.
Regarding `ClCCCN1CCN(CCCCl)CC1`, the T/C is 52 % of control (dose: 62.5 mg/kg/injection, schedule: Q04DX004 (sc), vehicle: distilled water + alcohol) and 17 % of control (dose: 125.0 mg/kg/injection, schedule: Q04DX004 (sc), vehicle: distilled water + alcohol).
Regarding `CCC1CC2CN(CCc3c([nH]c4ccccc34)C(C(=O)OC)(c3cc4c(cc3OC)N(C)C3C(O)(C(=O)OC)C(OC(C)=O)C5(CC)C=CCN6CCC43C65)C2)C1` (stereo unspecified), the T/C runs as follows: (dose: 1.0 mg/kg/injection, schedule: Q04DX004 (sc), vehicle: saline) 209 % of control; (dose: 2.0 mg/kg/injection, schedule: Q04DX004 (sc), vehicle: saline) 164 % of control; under setting [2], 58 % of control; under setting [3], 68 % of control.
Regarding `Cc1cc(N(CC(C)Br)CC(C)Br)ccc1N=Nc1ccccc1C(=O)O` (stereo unspecified), the T/C was 69 % of control (dose: 3.13 mg/kg/injection, schedule: Q01DX010 (sc), vehicle: saline with Tween-80); 18 % of control (dose: 6.25 mg/kg/injection, schedule: Q01DX010 (sc), vehicle: saline with Tween-80); 14 % of control (dose: 12.5 mg/kg/injection, schedule: Q01DX010 (sc), vehicle: saline with Tween-80).
As to `Oc1ccc(SCc2ccc(NCc3ccccc3)cc2)cc1`, the T/C by setting is: (dose: 400.0 mg/kg/injection, schedule: Q01DX009 (sc), vehicle: saline with Tween-80) 50 % of control; (dose: 500.0 mg/kg/injection, schedule: Q01DX010 (sc), vehicle: saline with Tween-80) 90 % of control; (dose: 800.0 mg/kg/injection, schedule: Q01DX009 (sc), vehicle: saline with Tween-80) 84 % of control; (dose: 1000.0 mg/kg/injection, schedule: Q01DX010 (sc), vehicle: saline with Tween-80) 84 % of control; (dose: 1600.0 mg/kg/injection, schedule: Q01DX009 (sc), vehicle: saline with Tween-80) 49 % of control; (dose: 2000.0 mg/kg/injection, schedule: Q01DX010 (sc), vehicle: saline with Tween-80) 54 % of control.
Consider `CC1(C)OC2C(COC(=O)c3ccc([N+](=O)[O-])cc3)OC(NC(=O)N(CCCl)N=O)C2O1` (stereo unspecified), for which the T/C under setting [4] was 38 % of control; the T/C under setting [5] is 26 % of control; the T/C (dose: 600.0 mg/kg/injection, schedule: Q04DX004 (sc), vehicle: saline with Tween-80) was 70 % of control.
As to `O=C(/C=C(\Cl)C(=O)NO)NO`, the T/C was 102 % of control (dose: 50.0 mg/kg/injection, schedule: Q04DX004 (sc), vehicle: saline); 172 % of control (dose: 100.0 mg/kg/injection, schedule: Q04DX004 (sc), vehicle: saline); 86 % of control (dose: 200.0 mg/kg/injection, schedule: Q04DX004 (sc), vehicle: saline).
Turning to `O=C1C(NCC(O)CO)=C(N2CC2)C(=O)C(NCC(O)CO)=C1N1CC1` (stereo unspecified), the T/C was 86 % of control under setting [2]; 28 % of control under setting [3]; 25 % of control (dose: 16.0 mg/kg/injection, schedule: Q04DX004 (sc), vehicle: saline).
Take `COc1ccc(S(=O)(=O)N=N/C=C2\C=CC=CN2O)cc1OC`: the T/C is, setting by setting: (dose: 18.75 mg/kg/injection, schedule: Q04DX004 (sc), vehicle: saline with Tween-80) 61 % of control; (dose: 37.5 mg/kg/injection, schedule: Q04DX004 (sc), vehicle: saline with Tween-80) 54 % of control; under setting [5], 55 % of control.
Consider `Cn1c2nc(=O)n(-c3ccccc3)c(=O)c-2nc2c1CCCC2`, for which the T/C is 106 % of control under setting [4] and 32 % of control under setting [5].
As for `Cc1ncc([N+](=O)[O-])n1CCSC(N)=O`, the T/C is 112 % of control (dose: 400.0 mg/kg/injection, schedule: Q04DX004 (sc), vehicle: saline with Tween-80); 76 % of control (dose: 800.0 mg/kg/injection, schedule: Q04DX004 (sc), vehicle: saline with Tween-80); 111 % of control (dose: 1600.0 mg/kg/injection, schedule: Q04DX004 (sc), vehicle: saline with Tween-80).
Turning to `CC(=O)Oc1c[nH]c(=O)[nH]c1=O`, the T/C was 122 % of control (dose: 100.0 mg/kg/injection, schedule: Q04DX004 (sc), vehicle: distilled water + Tween-80); 117 % of control (dose: 200.0 mg/kg/injection, schedule: Q04DX004 (sc), vehicle: distilled water + Tween-80); 107 % of control (dose: 400.0 mg/kg/injection, schedule: Q04DX004 (sc), vehicle: distilled water + Tween-80); 93 % of control (dose: 800.0 mg/kg/injection, schedule: Q04DX004 (sc), vehicle: distilled water + Tween-80).
Regarding `O=c1[nH]c(=O)n(C2CC(O)C(CO)O2)cc1C(F)(F)F` (stereo unspecified), the T/C was 202 % of control (dose: 100.0 mg/kg/injection, schedule: Q01DX010 (sc), vehicle: saline); 104 % of control (dose: 200.0 mg/kg/injection, schedule: Q01DX010 (sc), vehicle: saline); 73 % of control under setting [1].
Consider `COc1cc(C[C@H]2c3cc(OC)c(OC)cc3CCN2C)c(Oc2cc3c(cc2OC)-c2c(OC)c(OC)cc4c2[C@H](C3)N(C)CC4)cc1OC`, for which the T/C by setting is: (dose: 100.0 mg/kg/injection, schedule: Q01DX010 (sc), vehicle: saline with Tween-80) 100 % of control; (dose: 200.0 mg/kg/injection, schedule: Q01DX010 (sc), vehicle: saline with Tween-80) 45 % of control; (dose: 400.0 mg/kg/injection, schedule: Q01DX010 (sc), vehicle: saline with Tween-80) 67 % of control; (dose: 800.0 mg/kg/injection, schedule: Q01DX010 (sc), vehicle: saline with Tween-80) 63 % of control.
Consider `O=c1[nH]c(=O)n(C2CC(O)C(CO)O2)cc1F` (stereo unspecified), for which the T/C (dose: 25.0 mg/kg/injection, schedule: Q01DX010 (sc), vehicle: water) was 65 % of control and the T/C (dose: 50.0 mg/kg/injection, schedule: Q01DX010 (sc), vehicle: water) is 75 % of control.
In the case of `Nc1ncnc2c1nnn2C1OC(CO)C(O)C1O` (stereo unspecified), the T/C (dose: 75.0 mg/kg/injection, schedule: Q04DX004 (sc), vehicle: Klucel (hydroxypropylcellulose) (HPC)) is 41 % of control.
Regarding `CC[C@H]1CN2CCc3cc(OC)c(OC)cc3[C@@H]2C[C@@H]1C[C@H]1NCCc2cc(OC)c(OC)cc21`, the T/C runs as follows: (dose: 1.0 mg/kg/injection, schedule: Q01DX010 (sc), vehicle: saline) 92 % of control; (dose: 2.0 mg/kg/injection, schedule: Q01DX010 (sc), vehicle: saline) 166 % of control; (dose: 4.0 mg/kg/injection, schedule: Q01DX010 (sc), vehicle: saline) 90 % of control.
